What is called CC50 is the concentration that lowers cell viability or growth by half. The low end stands for greater toxicity to the cells, the high end for lower toxicity to the cells.

SMILES strings stand for the structures. In brackets after ≈: the same amount, converted by molar mass.

We go through one compound from US20230321251A1, “LIPOSOME FORMULATION CONTAINING ANTIBACTERIAL AGENT” (priority 2020, published 2023).

The subject of data set [1] is S. aureus SR3637. The experiment in a line: In vitro antibacterial activity (MIC), agar plate dilution. Type of data set: cell-based. Particulars: Staphylococcus aureus, SR3637, read-out: minimum inhibitory concentration (MIC), S. aureus SR3637, 1000 cfu/spot. On the procedure:
(§1) A minimum inhibitory concentration was measured as in vitro antibacterial activity. The minimum inhibitory concentration (MIC: μg/ml) was measured according to the standard method of Japanese Society of Chemotherapy, by an agar plate dilution method using 1000 cfu/spot as an inoculum amount and a susceptibility disk medium as a test medium.
(§2) In the tables, a unit of a numerical value of inhibitory activity is μg/ml. In addition, in the tables, S. aureus represents Staphylococcus aureus and E. faecalis represents Gram-positive group D streptococci (enterococci) that are resident in a normal bacterial flora of a human intestinal tract, and can be causative bacteria of endocarditis and the like after surgery.

Data set [2] relates to E. faecalis SR1004. The description is as above. The class given is cell-based. Particulars: Enterococcus faecalis, SR1004, read-out: minimum inhibitory concentration (MIC), E. faecalis SR1004, 1000 cfu/spot. The protocol: as §1, §2
Data set [3] deals with E. faecalis SR7914. The data set is described as above. Type of data set: cell-based. To be noted: Enterococcus faecalis, SR7914, read-out: minimum inhibitory concentration (MIC), E. faecalis SR7914, 1000 cfu/spot. The protocol:
as §1, §2

The test system of data set [4] is E. faecium SRM1101. The data set is described as above. To be noted: Enterococcus faecium, SRM1101, read-out: minimum inhibitory concentration (MIC). The class given is cell-based. The protocol:
as §1, §2

Data set [5] relates to E. faecium SR7940. The data set is described as above. Type of data set: cell-based. To be noted: Enterococcus faecium, SR7940, read-out: minimum inhibitory concentration (MIC), E. faecium SR7940, 1000 cfu/spot. On the procedure: as §1, §2
Data set [6] relates to S. aureus ATCC25923. The data set is described as above. To be noted: Staphylococcus aureus, ATCC25923, read-out: minimum inhibitory concentration (MIC), S. aureus ATCC25923, 1000 cfu/spot. Type of data set: cell-based, Staphylococcus aureus. On the procedure:
as §1, §2

Data set [7] concerns S. aureus ATCC700787. The data set is described as above. Type of data set: cell-based, Staphylococcus aureus. Particulars: Staphylococcus aureus, ATCC700787, read-out: minimum inhibitory concentration (MIC). The protocol:
as §1, §2

Data set [8] relates to S. aureus VRS1. The description is as above. Type of data set: cell-based, Staphylococcus aureus. Particulars: Staphylococcus aureus, VRS1, read-out: minimum inhibitory concentration (MIC), S. aureus VRS1, 1000 cfu/spot. The protocol:
as §1, §2

Data set [9] relates to 2% red blood cell suspension (defibrated sheep blood). The experiment in a line: In vitro hemolysis test. Type of data set: cell-based. To be noted: sheep red blood cells, 24 hours incubation. The protocol: Hemolysis rates of the compound A drug substance and the liposome formulation of Example 2 were evaluated by the following methods.
A 10 mM concentration solution of each test substance was prepared using a 5% sugar solution as a solvent, and 12 types of formulation solutions were prepared for each test substance up to 0.0049 mM by 2-fold serial dilution. Using 20% FBS-supplemented M-199 medium (With Earle's salts, sodium bicarbonate and 25 mM HEPES, supplement with 0.1 g/L L-glutamine) as a medium, a 2% red blood cell suspension (defibrated sheep blood) was prepared and mixed with a solvent or each test substance formulation solution (n=2). […] A mixed solution of the solvent or each test substance formulation solution and the red blood cell suspension or the medium was incubated for 24 hours, then the supernatant was collected, and an absorbance at 540 nm was measured. At the stage of completion of each incubation, an absorbance of the solvent and the red blood cell suspension, and an absorbance of the solvent and the medium were set to a reference of “hemolysis rate 0%”, and an absorbance of the 100% hemolysis solution was set to a reference of “100% hemolysis”, and a hemolysis rate by mixing and incubating each test substance formulation solution and the red blood cell suspension was calculated by the following calculation formula. […]

Data set [10] can be described thus: In vitro cytotoxicity test (resazurin). Type of data set: cell-based. Particulars: African green monkey, Vero cells, 72 hours culture. On the procedure:
Vero cells (final concentration: 2.0×10 to the power of 4 cells/well) cultured in advance and each test substance were added to 96 wells, and cultured for 72 hours under conditions of 5% CO2 and 37° C. Thereafter, 10 μl/well of a 0.01% resazurin solution was added, and after mixing, the cells were cultured under conditions of 5% CO2 and 37° C. for 4 hours, and then a fluorescence value (Ex 531 nm/Em 590 nm) was measured using a microplate reader.
A general note: The colour change of resazurin is a common sign of viable cells or microbes.

In the case of `CN[C@H](CC(C)C)C(=O)NC1C(=O)N[C@@H](CC(N)=O)C(=O)N[C@H]2C(=O)N[C@H]3C(=O)N[C@H](C(=O)N[C@@H](C(=O)O)c4cc(O)cc(O)c4-c4cc3ccc4O)[C@H](O[C@H]3C[C@](C)(N)[C@@H](O)[C@H](C)O3)c3ccc(c(Cl)c3)Oc3cc2cc(c3O[C@@H]2O[C@H](CO)[C@@H](O[C@@H]3O[C@H](CNCc4ccc(-c5ccc(Cl)cc5)s4)[C@H](O)[C@H](O)[C@H]3O)[C@H](O)[C@H]2O)Oc2ccc(cc2Cl)[C@H]1O` (stereo partly shown) [Compound A drug substance], the MIC in [1] is 1 µg/mL (≈ 0.55 µM); in [2] it was 0.5 µg/mL (≈ 0.275 µM); in [3], 2 µg/mL (≈ 1.1 µM); in data set [4], 2 µg/mL (≈ 1.1 µM); in data set [5], 2 µg/mL (≈ 1.1 µM); in data set [6], 1 µg/mL (≈ 0.55 µM). Also, the MIC amounted to 2 µg/mL (≈ 1.1 µM) in data set [7] and 4 µg/mL (≈ 2.2 µM) in [8]. The same compound returned a Hemolysis rate in data set [9] of 34%. In [10], the cytotoxic concentration (CC50) at 72 h stood at 128 µg/mL (≈ 70.4 µM).
